What was measured:
MOOVA (Monochoria) = experiment: Postemergence weed control under flooded paddy conditions; format: in vivo, Monochoria vaginalis; settings: postemergence weeds, 3-4 weeks after treatment
From the text: Results of herbicide evaluation are expressed on a rating scale (0-9). The scale is based upon a visual observation of plant stand, vigor, malformation, size, chlorosis and overall plant appearance as compared with a control.
Plastic containers containing weeds which are 3 to 5 cm tall and rice seedlings at the 1.5 to 2.5 leaf stage are flooded with water. The water is maintained at 1.5 to 3 cm above the soil surface for the duration of the experiment. Test compounds are applied as aqueous/ acetone mixtures 50/50 v/v directly into the flood water to provide the equivalent of about 0.0313 to 0.500 kg/ha of active ingredient. The treated containers are placed on greenhouse benches and cared for in accordance with conventional greenhouse procedures. Three to four weeks after treatment, the test is terminated and each container is examined and herbicidal effect rated according to the rating system provided in Example 37. The compounds evaluated are reported by compound number given in Example 37.

AMBEL (Ragweed, Common) = experiment: Preemergence herbicidal evaluation; format: in vivo, Ambrosia artemisifolia; settings: rated 4-5 weeks after treatment
Outline: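 Steps: mix seeds into potting soil; plant atop ~1 inch soil; spray compound in aqueous acetone (~0.0156-0.500 kg/ha equivalent); maintain in greenhouse with watering; rate visually 0-9 versus control at 4-5 weeks.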

CYPIR (Rice Flatsedge) = experiment: Preemergence weed control under flooded paddy conditions; format: in vivo, Cyperus iria; settings: rated 3-4 weeks after treatment
Outline: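 First, seeds or propagules go into the top 0.5 cm of silt loam; next, water is held 1.5 to 3 cm over the soil; then compound (50/50 acetone/water) is pipetted into it at about 0.0313 to 0.500 kg/ha; finally plants are rated visually 0-9 after three to four weeks.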

[1] = rate 0.1250 kg/ha, rating scale 0-9
[2] = rate 0.2500 kg/ha, rating scale 0-9

| SMILES | Herbicidal rating MOOVA (MOOVA (Monochoria); rate 0.0313 kg/ha) | Herbicidal rating MOOVA (MOOVA (Monochoria); rate 0.0625 kg/ha) | Herbicidal rating MOOVA (MOOVA (Monochoria); rate 0.1250 kg/ha) | Herbicidal rating MOOVA (MOOVA (Monochoria); rate 0.2500 kg/ha) | AMBEL preemergence herbicidal rating (AMBEL (Ragweed, Common); rate 0.0156 kg/ha) | AMBEL preemergence herbicidal rating (AMBEL (Ragweed, Common); rate 0.0313 kg/ha) | AMBEL preemergence herbicidal rating (AMBEL (Ragweed, Common); rate 0.0625 kg/ha) | AMBEL preemergence herbicidal rating (AMBEL (Ragweed, Common); rate 0.1250 kg/ha) | AMBEL preemergence herbicidal rating (AMBEL (Ragweed, Common); rate 0.2500 kg/ha) | Herbicidal rating CYPIR (CYPIR (Rice Flatsedge); 0.0313 kg/ha) | Herbicidal rating CYPIR (CYPIR (Rice Flatsedge); 0.0625 kg/ha) | herbicidal effect rating, CYPIR (CYPIR (Rice Flatsedge); 0.0313 kg/ha) | herbicidal effect rating, CYPIR (CYPIR (Rice Flatsedge); 0.0625 kg/ha) | herbicidal effect rating, CYPIR (CYPIR (Rice Flatsedge); 0.1250 kg/ha) | herbicidal effect rating, CYPIR (CYPIR (Rice Flatsedge); 0.2500 kg/ha) | Preemergence herbicidal rating AMBEL (AMBEL (Ragweed, Common); 0.0156 kg/ha) | Preemergence herbicidal rating AMBEL (AMBEL (Ragweed, Common); 0.0313 kg/ha) | Preemergence herbicidal rating AMBEL (AMBEL (Ragweed, Common); 0.0625 kg/ha) | Preemergence herbicidal rating AMBEL (AMBEL (Ragweed, Common); 0.1250 kg/ha) | Preemergence herbicidal rating AMBEL (AMBEL (Ragweed, Common); 0.2500 kg/ha) | other results |
| --- | --- | --- | --- | --- | --- | --- | --- | --- | --- | --- | --- | --- | --- | --- | --- | --- | --- | --- | --- | --- | --- |
| CC1SC(=Nc2cc(-n3c(=O)cc(C(F)(F)F)n(C)c3=O)c(F)cc2Cl)N(C)C1=O (stereo not shown) [Compound 9] | 9.0 | 9.0 | 9.0 | 9.0 | 3.0 | 6.3 | 7.3 | 9.0 | 9.0 | 0.0 | 2.0 | – | – | – | – | – | – | – | – | – | Herbicidal rating CYPIR (CYPIR (Rice Flatsedge); 0.1250 kg/ha): 4.0; Herbicidal rating CYPIR (CYPIR (Rice Flatsedge); 0.2500 kg/ha): 6.0 |
| CCC1SC(=Nc2cc(-n3c(=O)cc(C(F)(F)F)n(C)c3=O)c(F)cc2Cl)N(C)C1=O (stereo not shown) [Compound 10] | 9.0 | 9.0 | 9.0 | 9.0 | 0.3 | 0.3 | 3.3 | 4.7 | 6.3 | 0.0 | 0.0 | – | – | – | – | – | – | – | – | – | Herbicidal rating CYPIR (CYPIR (Rice Flatsedge); 0.1250 kg/ha): 2.0; Herbicidal rating CYPIR (CYPIR (Rice Flatsedge); 0.2500 kg/ha): 4.0 |
| CCOC(=O)CN1C(=O)C(F)SC1=Nc1cc(-n2c(=O)cc(C(F)(F)F)n(C)c2=O)c(F)cc1Cl (stereo not shown) [Compound 11, Ethyl 2-{{2-chloro-5-[3,6-dihydro-3-methyl-2,6-dioxo-4-(trifluoromethyl)-1(2H)-pyrimidinyl]-4-fluorophenyl}imino}-5-fluoro-4-oxo-3-thiazolidineacetate] | 0.0 | 1.0 | 4.0 | 7.0 | 0.0 | 1.0 | 5.5 | 6.5 | 9.0 | 0.0 | 0.0 | – | – | – | – | – | – | – | – | – | Herbicidal rating CYPIR (CYPIR (Rice Flatsedge); 0.1250 kg/ha): 0.0; Herbicidal rating CYPIR (CYPIR (Rice Flatsedge); 0.2500 kg/ha): 0.0 |
| CCOC(=O)CN1C(=O)C(C)SC1=Nc1cc(-n2c(=O)cc(C(F)(F)F)n(C)c2=O)c(F)cc1Cl (stereo not shown) [Compound 12] | 9.0 | 9.0 | 9.0 | 9.0 | 0.0 | 4.5 | 9.0 | 9.0 | 9.0 | 0.0 | 0.0 | – | – | – | – | – | – | – | – | – | Herbicidal rating CYPIR (CYPIR (Rice Flatsedge); 0.1250 kg/ha): 1.0; Herbicidal rating CYPIR (CYPIR (Rice Flatsedge); 0.2500 kg/ha): 0.0 |
| COCCN1C(=O)CSC1=Nc1cc(-n2c(=O)cc(C(F)(F)F)n(C)c2=O)c(F)cc1Cl [Compound 155, 3-{4-Chloro-2-fluoro-5-{[3-(2-methoxyethyl)-4-oxo-2-thiazolidinylidene]amino}phenyl}-1-methyl-6-(trifluoromethyl)-2,4(1H,3H)-pyrimidinedione] | – | – | – | – | – | – | – | – | – | – | – | 0.0 | 0.0 | 0.0 | 0.0 | – | – | – | – | – | Preemergence herbicidal rating AMBEL (AMBEL (Ragweed, Common); rate 0.0625 kg/ha, rating scale 0-9): 0.0; Preemergence herbicidal rating AMBEL (AMBEL (Ragweed, Common); [1]): 2.0; Preemergence herbicidal rating AMBEL (AMBEL (Ragweed, Common); [2]): 4.0 |
| COC(=O)CSCCN1C(=O)CSC1=Nc1cc(-n2c(=O)cc(C(F)(F)F)n(C)c2=O)c(F)cc1Cl [Compound 158, Methyl {{2-{2-{{2-chloro-5-[3,6-dihydro-3-methyl-2,6-dioxo-4-(trifluoromethyl)-1(2H)-pyrimidinyl]-4-fluorophenyl}imino}-4-oxo-3-thiazolidinyl}ethyl}-thio}acetate] | – | – | – | – | – | – | – | – | – | – | – | 9.0 | 9.0 | 9.0 | 9.0 | 1.0 | 3.0 | 7.0 | – | – | Preemergence herbicidal rating AMBEL (AMBEL (Ragweed, Common); [1]): 9.0; Preemergence herbicidal rating AMBEL (AMBEL (Ragweed, Common); [2]): 9.0 |
| C=CCN1C(=O)C(CC(=O)NO)SC1=Nc1cc(-n2c(=O)cc(C(F)(F)F)n(C)c2=O)c(F)cc1Cl (stereo not shown) [Compound 161, 3-Allyl-2-{{2-chloro-5-[3,6-dihydro-3-methyl-2,6-dioxo-4-(trifluoromethyl)-1(2H)-pyrimidinyl]-4-fluorophenyl}imino}-4-oxo-5-thiazolidineacetohydroxamic acid] | – | – | – | – | – | – | – | – | – | – | – | 3.0 | 4.0 | 5.0 | 6.0 | 0.0 | 3.0 | 5.0 | 9.0 | 9.0 | Preemergence herbicidal rating AMBEL (AMBEL (Ragweed, Common); 0.5000 kg/ha): 9.0 |
| CN1C(=O)C(CC(=O)NO)SC1=Nc1cc(-n2c(=O)cc(C(F)(F)F)n(C)c2=O)c(F)cc1Cl (stereo not shown) [Compound 162, 2-{{2-Chloro-5-[3,6-dihydro-3-methyl-2,6-dioxo-4-(trifluoromethyl)-1(2H)-pyrimidinyl]-4-fluorophenyl}imino}-3-methyl-4-oxo-5-thiazolidineacetohydroxamic acid] | – | – | – | – | – | – | – | – | – | – | – | 5.0 | 6.0 | 6.0 | 9.0 | 0.0 | 3.0 | 5.0 | 9.0 | 9.0 | – |
| Cn1c(C(F)(F)F)cc(=O)n(-c2cc(N=C3SCC(=O)N3CC(F)(F)F)c(Cl)cc2F)c1=O [Compound 163, 3-{4-Chloro-2-fluoro-5-{[4-oxo-3-(2,2,2-trifluoroethyl)-2-thiazolidinylidene]amino}phenyl}-1-methyl-6-(trifluoromethyl)-2,4(1H,3H)-pyrimidinedione] | – | – | – | – | – | – | – | – | – | – | – | 6.0 | 7.0 | 9.0 | 9.0 | 0.0 | 3.0 | 9.0 | 9.0 | 9.0 | – |
| C#CC(C)N1C(=O)CSC1=Nc1cc(-n2c(=O)cc(C(F)(F)F)n(C)c2=O)c(F)cc1Cl (stereo not shown) [Compound 165, 3-{4-Chloro-2-fluoro-5-{[3-(1-methyl-2-propynyl)-4-oxo-2-thiazolidinylidene]amino}phenyl}-1-methyl-6-(trifluoromethyl)-2,4(1H,3H)-pyrimidinedione] | – | – | – | – | – | – | – | – | – | – | – | 6.0 | 7.0 | 9.0 | 9.0 | 0.0 | 1.0 | 0.0 | 7.0 | 7.0 | Preemergence herbicidal rating AMBEL (AMBEL (Ragweed, Common); 0.5000 kg/ha): 9.0 |
| CCCN1C(=O)CSC1=Nc1cc(-n2c(=O)cc(C(F)(F)F)n(C)c2=O)c(F)cc1Cl [Compound 171, 3-{4-Chloro-2-fluoro-5-[(4-oxo-3-propyl-2-thiazolidinylidene)amino]phenyl}-1-methyl-6-(trifluoromethyl)-2,4 (1H, 3H)-pyrimidinedione] | – | – | – | – | – | – | – | – | – | – | – | 3.0 | 9.0 | 9.0 | 9.0 | 3.0 | 4.0 | 9.0 | 9.0 | 9.0 | – |

— patent publication US20020137929A1, “1 - (3-heterocyclylphenyl) isothiourea, -isourea, -guanidine and -amidine herbicidal agents” (Intellectual Property Department, BASF Aktiengesellschaft, priority 1998, published 2002)
